Results on 18 compounds are retold here after article PMC6563844, “Identification and in vivo Efficacy Assessment of Approved Orally Bioavailable Human Host Protein-Targeting Drugs With Broad Anti-influenza A Activity” (Frontiers in Immunology, 2019).

Each structure is given as a SMILES string. Where two headings read alike, the source gives them in different places. Where only a bound is given, the exact number is not on record here.

For series [1], the system named is influenza strains A/Puerto Rico/8/34 (PR8), A/Mexico/InDRE4487/2009 (H1N1pdm09), A/Victoria/36/2011 (H3N2). The format is cell-based, influenza A virus.
For series [2], the system named is PR8. The experiment in a line: microbe, parasite or virus in culture. Type of series: cell-based, influenza A virus.
Series [3] has as its system pH1N1 (H1N1pdm09 A/Mexico/InDRE4487/2009). The experiment in a line: microbe, parasite or virus in culture. The format is cell-based, influenza A virus.
For series [4], the system named is H3N2 (A/Victoria/36/2011). The experiment in a line: microbe, parasite or virus in culture. The format is cell-based, influenza A virus.
Series [5] deals with PR8. Also noted: species or system C57BL/6 mice. The conditions noted are these: mouse, in vivo, po.
The test system of series [6] is H1N1 and H3N2 influenza A viruses (PR8, H1N1pdm09, H3N2). The experiment in a line: microbe, parasite or virus in culture. Type of series: cell-based.
For series [7], the system named is H1N1 A/Puerto Rico/8/34 (PR8).
A short description of series [8]: MTT assay (cytotoxicity). Particulars: dog. (In general: Formazan colour is commonly taken as a measure of viable cells.)
Experimental: (§1) The MTT assay was performed according to the manufacturer's protocol (Thermo Fisher Vybrant MTT Cell Proliferation Assay Kit). Briefly, MDCK cells grown in a 96-well-plate were treated with the respective drugs at 5-fold descending concentrations starting at 500 mM or left untreated. After 24 h, medium was replaced by PBS containing 1 mM MTT. After incubation for 4 h at 37°C, supernatants were removed, mixed with DMSO and further incubated for 10 min at 37°C before absorption was measured at 562 nm using a PHOmo Microplate reader. To calculate the relative cytotoxicity, the absorbance of untreated cells was set to 1. The 50% cytotoxic concentration (CC50) was calculated using GraphPad 6, and the selectivity index (SI) represents the ratio of CC50 to EC50.
Series [9] deals with MDCK cells. The experiment in a line: MTT assay (cytotoxicity). The conditions noted are these: MDCK cells, 24 h, MTT.
Experimental: as §1
In series [10] the test system is H1N1pdm09 (A/Mexico/InDRE4487/2009). Set-up: species or system ferrets (mustela putorius furo). The conditions noted are these: in vivo.
A short description of series [11]: in vitro. The conditions noted are these: dog.
Experimental: as §1
[12] abbreviates: read-out: EC50 (50% effective dose).

The term EC50 denotes the concentration needed to bring the measured effect to its halfway point. For `O=C1CC[C@@]2(O)[C@H]3Cc4ccc(O)c5c4[C@@]2(CCN3CC2CC2)[C@H]1O5` [Naltrexone], the “reduction of viral titers” value in series [1] was found to be 100 fold. The EC50 is 4.7 ± 0.2 µM in series [2] (Influenza A virus, PR8, MDCK); 48 ± 3.2 µM in [3] (Influenza A virus, MDCK, pH1N1); > 500 µM in series [4] (Influenza A virus, H3N2, MDCK); 5 to 50 µM in series [6]. In series [4], the inhibition efficiency entry is listed as “less efficient”. Further, in [5], the “effect on lung viral titers” value is “no significant effect”. Moreover, in series [7], the “Inhibitory effect (fold inhibition)” value is >10-fold inhibition. The “antiviral activity in initial screen” value in series [7] is listed as “able to inhibit infection at doses above 50 μM without causing toxicity”. The same compound yielded a CC50 at 24 h in [8] of 5230 ± 227 µM.

`CC[C@]1(O)C[C@@H]2CN(CCc3c([nH]c4ccccc34)[C@@](C(=O)OC)(c3cc4c(cc3OC)N(C)[C@H]3[C@@](O)(C(=O)OC)[C@H](OC(C)=O)[C@]5(CC)C=CCN6CC[C@]43[C@@H]65)C2)C1` [Vinblastine]: in series [7], the Inhibitory effect entry is given as “toxic”, the antiviral activity result was “no antiviral activity” and the “toxicity in the screen” value was “pronounced toxicity”.

Turning to `CN(C)/N=N/c1[nH]cnc1C(N)=O` [Dacarbazine], in series [7], the Inhibitory effect entry is recorded as “no inhibition” and the “antiviral activity in initial screen” value was “no antiviral activity”.

Take `CC(=O)N[C@@H]1[C@@H](O)[C@H](O)[C@@H](CO)O[C@@H]1O` [N-Acetyl-D-Glucosamine]: in series [7], the Inhibitory effect entry is “No inhibition” and the “antiviral activity in initial screen” value is given as “no antiviral activity”.

For `O=[N+]([O-])[O-].O=[N+]([O-])[O-].O=[N+]([O-])[O-].[Ga+3]` [Gallium nitrate], in series [1], the “reduction of viral titers” value is “around 10 fold”. Also, the EC50 in series [2] (read-out: EC50) was found to be 54.8 ± 2.2 µM; in series [3] (pH1N1), 55.3 ± 2.9 µM; in [4] (read-out: EC50) it was 5.7 ± 0.9 µM. The “effect on lung viral titers” value in series [5] is “no significant effect”. Also, the “Inhibitory effect (fold inhibition)” value in [7] is >10-fold inhibition. For the same compound, the “antiviral activity in initial screen” value in series [7] is given as “able to inhibit infection at doses above 50 μM without causing toxicity”. Also, the CC50 in series [9] came out at 716 ± 116 µM.

With `COc1ccc2c(c1)[C@]13CCCC[C@@H]1[C@H](C2)N(C)CC3` [Dextromethorphan], the “reduction of viral titers” value in series [1] was “around 1,000 fold”. In addition, the EC50 in [2] (Influenza A virus, PR8, MDCK) is 48.7 ± 2.3 µM; in series [3] (Influenza A virus, MDCK, pH1N1), 50.8 ± 3.3 µM; in [4] (Influenza A virus, H3N2, MDCK), 51.7 ± 4.2 µM; in [6] (setting [12]), 5 to 50 µM. Besides, the “effect on lung viral titers” value in [5] is “more variable but significant reduction”. In addition, the clinical score result in [10] is “significantly lower peak score”. The weight loss in [10] was < 10%. In series [10] (po), the body weight effect result is given as “slightly increase the weight loss”. Besides, in [10] (po), the “effect on nasal wash titers” value is “no effect”. The “Inhibitory effect (fold inhibition)” value in series [7] is recorded as >10-fold inhibition. In addition, in series [7], the “antiviral activity in initial screen” value is on record as “able to inhibit infection at doses above 50 μM without causing toxicity”. Also, the CC50 at 24 h in series [8] stood at 3546 ± 11.1 µM.

`CCC(CC)O[C@@H]1C=C(C(=O)O)C[C@H](N)[C@H]1NC(C)=O` [oseltamivir carboxylate]: in series [1], the “concentration completely inhibiting replication” value was “higher than 5 μM”. Besides, the EC50 in series [2] (read-out: EC50) is 0.005 µM; in series [3] it was ~0.2 µM.

On to `CCCCC1=NC2(CCCC2)C(=O)N1Cc1ccc(-c2ccccc2-c2nnn[nH]2)cc1` [Irbesartan], for which, in series [7], the Inhibitory effect result is reported as “toxic”, the antiviral activity result is recorded as “no antiviral activity” and the “toxicity in the screen” value was “pronounced toxicity”.

On to `CCOC(=O)C1=C[C@@H](OC(CC)CC)[C@H](NC(C)=O)[C@@H](N)C1` [Oseltamivir phosphate, oseltamivir phosphate], for which the “reduction of lung titers” value in [5] is on record as 28 fold. For the same compound, the clinical score result in series [10] is listed as “minimal clinical score peaking on day 3”. Also, in series [10] (po), the “reduction in nasal wash titers” value was 10 fold.

For the compound `NCCCC(O)(P(=O)(O)O)P(=O)(O)O` [Alendronate], in series [7], the Inhibitory effect result was “toxic” and the antiviral activity result is given as “no antiviral activity”.

Turning to `CCOC(=O)C1=C[C@@H](OC(CC)CC)[C@H](NC(C)=O)[C@@H](N)C1` [Oseltamivir], the EC50 in [2] (Influenza A virus, PR8, MDCK) came out at 0.005 ± 0.0004 µM; in series [3] (Influenza A virus, MDCK, pH1N1) it was 0.2 ± 0.05 µM; in [4] (Influenza A virus, H3N2, MDCK), 0.05 ± 0.003 µM. Besides, the CC50 at 24 h in series [11] worked out at 470 ± 12.3 µM.

In the case of `CC(C)NCC(O)c1ccc(O)c(O)c1` (centres unmarked) [Isoproterenol], in series [7], the Inhibitory effect result was “toxic”, the antiviral activity entry is on record as “no antiviral activity” and the “toxicity in the screen” value is “pronounced toxicity”.

Regarding `O=C1CCC(N2C(=O)c3ccccc3C2=O)C(=O)N1` (centres unmarked) [Thalidomide], in [7], the Inhibitory effect entry was “No inhibition” and the “antiviral activity in initial screen” value is listed as “no antiviral activity”.

For `CC(O)(P(=O)(O)O)P(=O)(O)O` [Etidronic Acid], in [7], the Inhibitory effect entry is “No inhibition” and the “antiviral activity in initial screen” value is “no antiviral activity”.

Turning to `N[C@@H](CCC(=O)O)C(=O)O` [L-Glutamic Acid], in [7], the Inhibitory effect entry is recorded as “No inhibition” and the “antiviral activity in initial screen” value was “no antiviral activity”.

On to `Nc1ncnc2c1ncn2[C@@H]1O[C@H](COP(=O)(O)OP(=O)(O)OP(=O)(O)O)[C@@H](O)[C@H]1O` [Adenosine triphosphate], for which, in series [7], the Inhibitory effect result was “No inhibition” and the “antiviral activity in initial screen” value is on record as “no antiviral activity”.

In the case of `CN1CCC(=C2c3ccccc3CC(=O)c3sccc32)CC1` [Ketotifen], in [1], the “reduction of viral titers” value amounted to 100 fold. For the same compound, the EC50 in series [2] (Influenza A virus, PR8, MDCK) is 5.9 ± 0.2 µM; in series [3] (Influenza A virus, MDCK, pH1N1) it was 33.7 ± 1.3 µM; in series [4] (Influenza A virus, H3N2, MDCK), 48.5 ± 2 µM; in series [6] (setting [12]), 5 to 50 µM. Moreover, the “Inhibitory effect (fold inhibition)” value in [7] was >10-fold inhibition. Also, in series [7], the “antiviral activity in initial screen” value is recorded as “able to inhibit infection at doses above 50 μM without causing toxicity”. For the same compound, in series [11], the CC50 at 24 h came out at 291 ± 14.8 µM.

For the compound `N=C(N)NC(=O)c1nc(Cl)c(N)nc1N` [Amiloride], in series [7], the Inhibitory effect entry was “No inhibition” and the “antiviral activity in initial screen” value is recorded as “no antiviral activity”.
